From patent US20150094474A1, “AGRICULTURAL CHEMICALS” (Redx Pharma Ltd., priority 2012, published 2015)

Legend:
barley = test: Herbicidal bioassay, barley (% necrosis); format: in vivo
Procedure, shortened: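 Scoring of % necrosis followed EPPO guideline PP1/135 at specified growth intervals, five replicates per species and treatment. Plants at the 2-4 true leaf stage received Potter-tower sprays of DMSO-diluted compounds across six levels from 0.0001% to 0.05%, with water and DMSO controls.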

Chinese cabbage = test: Herbicidal bioassay, Chinese cabbage (% necrosis); format: in vivo
Description: A laboratory bioassay was conducted to screen ten compounds (Fluazifop (25); Ethyl fluazifop (62); five fluazifop analogues: 27, 28, 63, 64 and 65; mesofulfuron (6); and two mesosulfuron analogues: 8 and 61. for activity against Lolium perenne, barley, peas and Chinese cabbage. Compounds were diluted in DMSO. Controls were performed using both DMSO and water.
Plants were obtained as seeds and were grown to the 2-4 true leaf stage. Plants were grown individually in seed trays. Each plant (in an approximately 3 cm diameter plug) was then detached from the tray for spraying. Environmental conditions were closely monitored and recorded and were within the optimal range of the target species.
The compounds were screened at a range of six concentrations, eg. 0.05%, 0.01%, 0.005%, 0.001%, 0.0005% and 0.0001%. Treatments will be applied directly onto the plants, using a potter tower.
One plant of each type will be sprayed using a potter tower. The 4 different types of weeds will be placed in a 10 cm diameter area underneath the potter sprayer and sprayed simultaneously. The growth of the plants and any Phytotoxicity effects will then be assessed at specified growth intervals, according to EPPO guideline PP1/135. Five replicates will be performed for each treatment, for each species.

CCOC(=O)C(C)Oc1ccc(Oc2ccc(C(F)(F)F)cn2)cc1 (stereo not drawn) [Fluazifop Ethyl ester (62)]
Sum of % necrosis in barley (barley; Dose 0.00005, Day 0): C (less than 50% necrosis)
Sum of % necrosis in barley (barley; Dose 0.00005, Day 1): C (less than 50% necrosis)
Sum of % necrosis in barley (barley; Dose 0.00005, Day 3): C (less than 50% necrosis)
Sum of % necrosis in barley (barley; Dose 0.00005, Day 7): C (less than 50% necrosis)
Sum of % necrosis in barley (barley; Dose 0.00005, Day 10): C (less than 50% necrosis)
Sum of % necrosis in barley (barley; Dose 0.00005, Day 14): C (less than 50% necrosis)
Sum of % necrosis in barley (barley; Dose 0.00005, Day 21): B (50%-80% necrosis)
Sum of % necrosis in barley (barley; Dose 0.0001, Day 0): C (less than 50% necrosis)
Sum of % necrosis in barley (barley; Dose 0.0001, Day 1): C (less than 50% necrosis)
Sum of % necrosis in barley (barley; Dose 0.0001, Day 3): C (less than 50% necrosis)
Sum of % necrosis in barley (barley; Dose 0.0001, Day 7): C (less than 50% necrosis)
Sum of % necrosis in barley (barley; Dose 0.0001, Day 10): C (less than 50% necrosis)
Sum of % necrosis in barley (barley; Dose 0.0001, Day 14): C (less than 50% necrosis)
Sum of % necrosis in barley (barley; Dose 0.0001, Day 21): A (over 80% necrosis)
Sum of % necrosis in barley (barley; Dose 0.0005, Day 0): C (less than 50% necrosis)
Sum of % necrosis in barley (barley; Dose 0.0005, Day 1): C (less than 50% necrosis)
Sum of % necrosis in barley (barley; Dose 0.0005, Day 3): C (less than 50% necrosis)
Sum of % necrosis in barley (barley; Dose 0.0005, Day 7): C (less than 50% necrosis)
Sum of % necrosis in barley (barley; Dose 0.0005, Day 10): C (less than 50% necrosis)
Sum of % necrosis in barley (barley; Dose 0.0005, Day 14): C (less than 50% necrosis)
Sum of % necrosis in barley (barley; Dose 0.0005, Day 21): A (over 80% necrosis)
Sum of % necrosis in Chinese cabbage (Chinese cabbage; Dose 0.000001, Day 0): C (less than 50% necrosis)
Sum of % necrosis in Chinese cabbage (Chinese cabbage; Dose 0.000001, Day 1): C (less than 50% necrosis)
Sum of % necrosis in Chinese cabbage (Chinese cabbage; Dose 0.000001, Day 3): C (less than 50% necrosis)
Sum of % necrosis in Chinese cabbage (Chinese cabbage; Dose 0.000001, Day 7): C (less than 50% necrosis)
Sum of % necrosis in Chinese cabbage (Chinese cabbage; Dose 0.000001, Day 10): C (less than 50% necrosis)
Sum of % necrosis in Chinese cabbage (Chinese cabbage; Dose 0.000001, Day 14): C (less than 50% necrosis)
Sum of % necrosis in Chinese cabbage (Chinese cabbage; Dose 0.000001, Day 21): C (less than 50% necrosis)
Sum of % necrosis in Chinese cabbage (Chinese cabbage; Dose 0.000005, Day 0): C (less than 50% necrosis)
Sum of % necrosis in Chinese cabbage (Chinese cabbage; Dose 0.000005, Day 1): C (less than 50% necrosis)
Sum of % necrosis in Chinese cabbage (Chinese cabbage; Dose 0.000005, Day 3): C (less than 50% necrosis)
Sum of % necrosis in Chinese cabbage (Chinese cabbage; Dose 0.000005, Day 7): C (less than 50% necrosis)
Sum of % necrosis in Chinese cabbage (Chinese cabbage; Dose 0.000005, Day 10): A (over 80% necrosis)
Sum of % necrosis in Chinese cabbage (Chinese cabbage; Dose 0.000005, Day 14): A (over 80% necrosis)
Sum of % necrosis in Chinese cabbage (Chinese cabbage; Dose 0.000005, Day 21): A (over 80% necrosis)
Sum of % necrosis in Chinese cabbage (Chinese cabbage; Dose 0.00001, Day 0): C (less than 50% necrosis)
Sum of % necrosis in Chinese cabbage (Chinese cabbage; Dose 0.00001, Day 1): C (less than 50% necrosis)
Sum of % necrosis in Chinese cabbage (Chinese cabbage; Dose 0.00001, Day 3): C (less than 50% necrosis)
Sum of % necrosis in Chinese cabbage (Chinese cabbage; Dose 0.00001, Day 7): C (less than 50% necrosis)
Sum of % necrosis in Chinese cabbage (Chinese cabbage; Dose 0.00001, Day 10): B (50%-80% necrosis)
Sum of % necrosis in Chinese cabbage (Chinese cabbage; Dose 0.00001, Day 14): A (over 80% necrosis)
Sum of % necrosis in Chinese cabbage (Chinese cabbage; Dose 0.00001, Day 21): A (over 80% necrosis)
Sum of % necrosis in Chinese cabbage (Chinese cabbage; Dose 0.00005, Day 0): C (less than 50% necrosis)
Sum of % necrosis in Chinese cabbage (Chinese cabbage; Dose 0.00005, Day 1): C (less than 50% necrosis)
Sum of % necrosis in Chinese cabbage (Chinese cabbage; Dose 0.00005, Day 3): C (less than 50% necrosis)
Sum of % necrosis in Chinese cabbage (Chinese cabbage; Dose 0.00005, Day 7): B (50%-80% necrosis)
Sum of % necrosis in Chinese cabbage (Chinese cabbage; Dose 0.00005, Day 10): A (over 80% necrosis)
Sum of % necrosis in Chinese cabbage (Chinese cabbage; Dose 0.00005, Day 14): A (over 80% necrosis)
Sum of % necrosis in Chinese cabbage (Chinese cabbage; Dose 0.00005, Day 21): A (over 80% necrosis)
Sum of % necrosis in Chinese cabbage (Chinese cabbage; Dose 0.0001, Day 0): C (less than 50% necrosis)
Sum of % necrosis in Chinese cabbage (Chinese cabbage; Dose 0.0001, Day 1): C (less than 50% necrosis)
Sum of % necrosis in Chinese cabbage (Chinese cabbage; Dose 0.0001, Day 3): C (less than 50% necrosis)
Sum of % necrosis in Chinese cabbage (Chinese cabbage; Dose 0.0001, Day 7): B (50%-80% necrosis)
Sum of % necrosis in Chinese cabbage (Chinese cabbage; Dose 0.0001, Day 10): A (over 80% necrosis)
Sum of % necrosis in Chinese cabbage (Chinese cabbage; Dose 0.0001, Day 14): A (over 80% necrosis)
Sum of % necrosis in Chinese cabbage (Chinese cabbage; Dose 0.0001, Day 21): A (over 80% necrosis)
Sum of % necrosis in Chinese cabbage (Chinese cabbage; Dose 0.0005, Day 0): C (less than 50% necrosis)
Sum of % necrosis in Chinese cabbage (Chinese cabbage; Dose 0.0005, Day 1): C (less than 50% necrosis)
Sum of % necrosis in Chinese cabbage (Chinese cabbage; Dose 0.0005, Day 3): B (50%-80% necrosis)
Sum of % necrosis in Chinese cabbage (Chinese cabbage; Dose 0.0005, Day 7): A (over 80% necrosis)
Sum of % necrosis in Chinese cabbage (Chinese cabbage; Dose 0.0005, Day 10): A (over 80% necrosis)
Sum of % necrosis in Chinese cabbage (Chinese cabbage; Dose 0.0005, Day 14): A (over 80% necrosis)
Sum of % necrosis in Chinese cabbage (Chinese cabbage; Dose 0.0005, Day 21): A (over 80% necrosis)
